Data from patent publication US20260248879A1, “METHODS OF USING A GCG/GLP1 CO-AGONIST FOR THERAPY” (ELI LILLY AND COMPANY, priority 2022, published 2026).

Tested on: individuals with obesity
Test: Example 2 multiple ascending dose study in obesity: body weight, waist circumference
Assay type: in vivo, human
Description: This study is designed to evaluate the safety, tolerability, PD and PK of dose to higher doses of Compound 1 in individuals with obesity. The Multiple Ascending Dose (MAD) study is a randomized, investigator- and participant-blind, placebo-controlled, multiple-ascending dose, single- or multi-site study conducted in individuals with obesity (i.e., females or males aged 18-70 years, inclusive, a BMI in the range of 27 kg/m^2 to 50 kg/m^2). Participants should have stable body weight for at least 3 months prior to the initiation of the study. Dose of Compound 1 is assessed with weekly dosing over 20 weeks in 2 cohorts. Each cohort comprises 12 patients-nine patients are administered Compound 1 and three patients are administered placebo. The dose for Cohort 1 is as follows: • 1.5 mg Compound 1 for 2 weeks; • 3.0 mg Compound 1 for 2 weeks; • 6.0 mg Compound 1 for 4 weeks; • 8.0 mg Compound 1 for 4 weeks; • 12.0 mg Compound 1 for 4 weeks; and • 16.0 mg Compound 1 for 4 weeks. The dose for Cohort 2 is as follows: • 2.0 mg Compound 1 for 3 weeks; • 4.0 mg Compound 1 for 3 weeks; • 6.0 mg Compound 1 for 3 weeks; • 8.0 mg Compound 1 for 3 weeks; • 10.0 mg Compound 1 for 2 weeks; • 13.0 mg Compound 1 for 2 weeks, and • 16.0 mg Compound 1 for 4 weeks. Body weight and waist circumference are measured at frequent intervals across dose from Day 1 through Day 138 and for an extended follow-up period after the conclusion of dosing. Mean absolute and percent change in body weight are calculated for Compound 1 and for placebo arms within each cohort and compared to baseline at multiple time points from Day 1 through Day 138 and throughout the extended follow-up period after the conclusion of dosing. Mean absolute and percent change in waist circumference are calculated for Compound 1 and for placebo arms within each cohort and compared to baseline at multiple time points from Day 1 through Day 138 and throughout the extended follow-up period after the conclusion of dosing. While the weight loss described in Example 1 is in a T2D patient population, greater weight loss is typical in an obesity patient population. A multiplier of 1.6-1.8 may be applied to percent weight loss moving from the T2D population to an obesity population.

CC(C)C[C@H](NC(=O)[C@H](CC(C)C)NC(=O)[C@H](Cc1c[nH]c2ccccc12)NC(=O)[C@H](CCC(=O)O)NC(=O)[C@@H](NC(=O)[C@H](Cc1ccccc1)NC(=O)[C@H](CCC(=O)O)NC(=O)[C@H](CCCCNC(=O)COCCOCCNC(=O)COCCOCCNC(=O)CC[C@H](NC(=O)CCCCCCCCCCCCCCCCCCC(=O)O)C(=O)O)NC(=O)[C@H](C)NC(=O)[C@H](CCCCN)NC(=O)[C@H](CCCCN)NC(=O)[C@H](CCC(=O)O)NC(=O)[C@H](CC(=O)O)NC(=O)[C@H](CC(C)C)NC(=O)[C@H](Cc1ccc(O)cc1)NC(=O)[C@H](CCCCN)NC(=O)[C@H](CO)NC(=O)[C@H](Cc1ccc(O)cc1)NC(=O)[C@H](CC(=O)O)NC(=O)[C@H](CO)NC(=O)[C@@H](NC(=O)[C@H](Cc1ccccc1)NC(=O)[C@@H](NC(=O)CNC(=O)[C@H](CCC(N)=O)NC(=O)C(C)(C)NC(=O)[C@@H](N)Cc1c[nH]cn1)[C@@H](C)O)[C@@H](C)O)C(C)C)C(=O)N[C@@H](CCC(=O)O)C(=O)NCC(=O)NCC(=O)N1CCC[C@H]1C(=O)N[C@@H](CO)C(=O)N[C@@H](CO)C(=O)NCC(N)=O [Compound 1]
mean waist circumference change (Ex. 2 Cohort 1, Day 85/12 weeks (after 4 weeks of 8 mg), placebo +0.04%): −5.2%
mean percent change from baseline in body weight (Ex. 2 Cohort 1, Day 113/16 weeks, after 4 weeks of 12 mg, placebo +0.7%): −15.4%
mean waist circumference change (Ex. 2 Cohort 1, Day 113/16 weeks, after 4 weeks of 12 mg, placebo +1.3%): −6.3%
mean waist circumference change (Ex. 2 Cohort 1, Day 138/20 weeks, after 4 weeks of 16 mg, placebo +0.4%): −11.5%
mean waist circumference change (Ex. 2 Cohort 2, Day 85/12 weeks (after 8 mg), placebo +0.04%): −7.6%
mean percent change from baseline in body weight (Ex. 2 Cohort 2, Day 85/12 weeks (after 8 mg), placebo +0.2%): −11.7%
mean percent change from baseline in body weight (Ex. 2 Cohort 2, Day 99/14 weeks, after 2 weeks of 10 mg, placebo +0.07%): −13.4%
mean waist circumference change (Ex. 2 Cohort 2, Day 99/14 weeks, after 2 weeks of 10 mg, placebo +1.0%): −6.8%
mean percent change from baseline in body weight (Ex. 2 Cohort 2, Day 113/16 weeks, after 2 weeks of 13 mg, placebo +0.7%): −16.2%
mean waist circumference change (Ex. 2 Cohort 2, Day 113/16 weeks, after 2 weeks of 13 mg, placebo +1.3%): −12.6%
mean waist circumference change (Ex. 2 Cohort 2, Day 138/20 weeks, after 4 weeks of 16 mg, placebo +0.4%): −16.6%
